Data on eight compounds can be found in patent US6476059B1, “Use of polycyclic 2-aminothiazole systems for the treatment of obesity” (Aventis Pharma Deutschland GmbH, priority 1999, dated 2002).

One series deals with male NMRI mice. The series can be described thus: Anorectic effect: cumulative condensed milk consumption after gavage. To be noted: oral dose 50 mg/kg by gavage, feed withdrawn for 24 hours; for Reduction in the cumulative milk consumption as % of the controls: compared with untreated control animals; for cumulative milk consumption by the treated animals: condensed milk offered 30 minutes after administration, consumption determined every half hour for 7 hours. Format: in vivo. The method, then: The anorectic effect was tested on male NMRI mice. After withdrawal of feed for 24 hours, the test product was administered by gavage. The animals were housed singly and had free access to drinking water and, 30 minutes after administration of the product, they were offered condensed milk. The consumption of condensed milk was determined, and the general behavior of the animals was inspected, every half hour for 7 hours. The measured milk consumption was compared with that of untreated control animals.

Bounds are passed on as bounds.

The term melting point denotes the temperature, or range, at which the solid turns liquid. The compound `N#CNc1nc2c(s1)Cc1cc(Cl)ccc1-2` [Example 4, 6-Chloro-8H-indeno[1,2-d]thiazol-2-yl-cyanamide] gave a melting point of 225 °C.
`Cc1cccc(Oc2ccc3c(c2)Cc2sc(N)nc2-3)c1.Cl` [Example 27, 6-m-Tolyloxy-8H-indeno[1,2-d]thiazol-2-yl-amine hydrochloride] yielded a melting point of 174 °C. Also, in the series on male NMRI mice, the “Reduction in the cumulative milk consumption as % of the controls” value (“Reduction … as % of the controls” below) came to 79% and the “cumulative milk consumption by the treated animals” value is 5/0.74 ml.
In the same order, the values of `O=CNc1nc2c(s1)Cc1cc(Cl)ccc1-2` [Example 6, N-(6-chloro-8H-indeno[1,2-d]thiazol-2-yl)formamide] are 295 °C, 77% and 5/0.96 ml.
As to `CNc1nc2c(s1)Cc1cc(-c3cccnc3)ccc1-2.Cl` [Example 26, Methyl(6-pyridin-3-yl-8H-indeno[1,2-d]thiazol-2-yl)amine hydrochloride], the melting point worked out at 225 °C. In the series on male NMRI mice, the “Reduction … as % of the controls” value amounted to 77% and the “cumulative milk consumption by the treated animals” value is given as 5/0.68 ml.
Taken in the same sequence, the figures for `CNc1nc2c(s1)Cc1cc(OCC(F)(F)C(F)(F)F)ccc1-2.Cl` [Example 18, Methyl[6-(2,2,3,3,3-pentafluoropropoxy)-8H-indeno[1,2-d]thiazol-2-yl]amine hydrochloride] were 258 °C, 90% and 5/0.38 ml.
The compound `N=C(Nc1ccccc1)Nc1nc2c(s1)Cc1cc(Cl)ccc1-2` [Example 7, N-(6-Chloro-8H-indeno[1,2-d]thiazol-2-yl)-N′-phenylguanidine] displayed a melting point of 210 °C.
Still for that read-out and setting: as for `CS(=O)(=O)c1ccc2c(c1)-c1nc(N)sc1C2.Cl`, the figure is over 230 °C.
`Br.CN(C)c1nc2c(s1)Cc1cc(C#N)ccc1-2` [Example 2, 2-Dimethylamino-8H-indeno[1,2-d]thiazole-6-carbonitrile hydrobromide] came in with a melting point of over 300 °C. In addition, in the series with male NMRI mice, the “Reduction … as % of the controls” value came to 85% and the “cumulative milk consumption by the treated animals” value is 5/0.76 ml.
